# Patent publication US7160508B2, “Personal care products having elastomeric portions” (The Gillette Company, priority 2001, dated 2007)
# Test: Minimum inhibitory concentration (agar plate dilution, molds)
# Type: cell-based
# Conditions: 168 h; lowest concentration in sterile water and agar with no growth visible to the naked eye after 7 days at 27±2° C.
# Description: Preferred antimicrobial agents will inhibit mold growth at relatively low concentrations of antimicrobial agent, i.e., preferred antimicrobial agents will have a low “minimum inhibitory concentration” (MIC), measured as parts per million (ppm) concentration in sterile water and agar using the test procedure discussed below. If the MIC is high, a high concentration of antimicrobial agent will generally be necessary in order to obtain sufficient antifungal activity, resulting in increased cost and a potential adverse affect on the properties of the elastomeric material. For example, high concentrations of antifungal agent may tend to increase the hardness of the thermoplastic elastomer. Preferred antimicrobial agents have an MIC of less than about 100 ppm.
# Minimum inhibitory concentration is measured by diluting the antimicrobial agent in sterile water to obtain a plurality of solutions having a range of concentrations. 1 ml of each of the solutions is added to 9 ml portions of molten agar to give a final volume of 10 ml, and immediately poured to form plates. […] The plates are incubated at 27±2° C. and analyzed for growth at 3, 5 and 7 days. […]
compound,measurement,value
"CCCCCCCCn1sc(Cl)c(Cl)c1=O [4,5-dichloro-2-n-octyl-4-isothiazolin-3-one]",MIC,~50 mg/L
